Test results as given in PubChem BioAssay (NCI).
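All cell lines were grown in 96-well plates and treated with compound for 48 hours. At the GI50, growth is halved. TGI marks complete inhibition of growth.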

Key:
Assay in all cases: inhibition of tumour cell growth, NCI panel, 48 h
786-0 renal = tested on: 786-0 renal
A498 renal = tested on: A498 renal
A549 NSCLC = tested on: A549 NSCLC
ACHN renal = tested on: ACHN renal
BT-549 breast = tested on: BT-549 breast
CAKI-1 renal = tested on: CAKI-1 renal
CCRF-CEM leukemia = tested on: CCRF-CEM leukemia
COLO 205 colon = tested on: COLO 205 colon
DU-145 prostate = tested on: DU-145 prostate
EKVX NSCLC = tested on: EKVX NSCLC
HCC-2998 colon = tested on: HCC-2998 colon
HCT-116 colon = tested on: HCT-116 colon
HCT-15 colon = tested on: HCT-15 colon
HL-60(TB) leukemia = tested on: HL-60(TB) leukemia
HOP-62 NSCLC = tested on: HOP-62 NSCLC
HOP-92 NSCLC = tested on: HOP-92 NSCLC
HS 578T breast = tested on: HS 578T breast
HT29 colon = tested on: HT29 colon
IGROV1 ovarian = tested on: IGROV1 ovarian
K-562 leukemia = tested on: K-562 leukemia
KM12 colon = tested on: KM12 colon
LOX IMVI melanoma = tested on: LOX IMVI melanoma
M14 melanoma = tested on: M14 melanoma
MALME-3M melanoma = tested on: MALME-3M melanoma
MCF7 breast = tested on: MCF7 breast
MDA-MB-231 breast = tested on: MDA-MB-231 breast
MDA-MB-435 = tested on: MDA-MB-435
MOLT-4 leukemia = tested on: MOLT-4 leukemia
NCI-H226 lung = tested on: NCI-H226 lung
NCI-H23 lung = tested on: NCI-H23 lung
NCI-H460 lung = tested on: NCI-H460 lung
NCI-H522 lung = tested on: NCI-H522 lung
NCI/ADR-RES ovarian = tested on: NCI/ADR-RES ovarian
OVCAR-3 ovarian = tested on: OVCAR-3 ovarian
OVCAR-4 ovarian = tested on: OVCAR-4 ovarian
OVCAR-5 ovarian = tested on: OVCAR-5 ovarian
OVCAR-8 ovarian = tested on: OVCAR-8 ovarian
PC-3 prostate = tested on: PC-3 prostate
RPMI-8226 leukemia = tested on: RPMI-8226 leukemia
RXF 393 renal = tested on: RXF 393 renal
SF-268 CNS = tested on: SF-268 CNS
SF-295 CNS = tested on: SF-295 CNS
SF-539 CNS = tested on: SF-539 CNS
SK-MEL-2 melanoma = tested on: SK-MEL-2 melanoma
SK-MEL-28 melanoma = tested on: SK-MEL-28 melanoma
SK-MEL-5 melanoma = tested on: SK-MEL-5 melanoma
SK-OV-3 ovarian = tested on: SK-OV-3 ovarian
SN12C renal = tested on: SN12C renal
SNB-19 CNS = tested on: SNB-19 CNS
SNB-75 CNS = tested on: SNB-75 CNS
SR leukemia = tested on: SR leukemia
SW-620 colon = tested on: SW-620 colon
T-47D breast = tested on: T-47D breast
TK-10 renal = tested on: TK-10 renal
U251 CNS = tested on: U251 CNS
UACC-257 melanoma = tested on: UACC-257 melanoma
UACC-62 melanoma = tested on: UACC-62 melanoma
UO-31 renal = tested on: UO-31 renal

`ClC1=C(Cl)C(Cl)(C2(Cl)C(Cl)=C(Cl)C(Cl)=C2Cl)C(Cl)=C1Cl` showed a GI50 (786-0 renal) of 242 nM, a TGI (786-0 renal) of 746 nM and a GI50 (A498 renal) of 1710 nM. It also gave a TGI (A498 renal) of 3190 nM, a GI50 (A549 NSCLC) of 1870 nM and a TGI (A549 NSCLC) of 4160 nM. The GI50 (ACHN renal) was 165 nM, the TGI (ACHN renal) was 312 nM and the GI50 (BT-549 breast) was 1680 nM. The TGI (BT-549 breast) was 3670 nM, the GI50 (CAKI-1 renal) was 265 nM and the TGI (CAKI-1 renal) was 832 nM. It also gave a GI50 (CCRF-CEM leukemia) of 166 nM, a TGI (CCRF-CEM leukemia) of 496 nM and a GI50 (COLO 205 colon) of 202 nM. The TGI (COLO 205 colon) was 462 nM, the GI50 (DU-145 prostate) was 633 nM and the TGI (DU-145 prostate) was 1990 nM. For the same compound, the GI50 (EKVX NSCLC) was 1520 nM, the TGI (EKVX NSCLC) was 3880 nM and the GI50 (HCC-2998 colon) was 2130 nM. For the same compound, the TGI (HCC-2998 colon) was 4000 nM, the GI50 (HCT-116 colon) was 189 nM and the TGI (HCT-116 colon) was 439 nM. The GI50 (HCT-15 colon) was 214 nM, the TGI (HCT-15 colon) was 552 nM and the GI50 (HL-60(TB) leukemia) was 206 nM. The TGI (HL-60(TB) leukemia) was 549 nM, the GI50 (HOP-62 NSCLC) was 2210 nM and the TGI (HOP-62 NSCLC) was 4560 nM. The GI50 (HOP-92 NSCLC) was 175 nM, the TGI (HOP-92 NSCLC) was 437 nM and the GI50 (HS 578T breast) was 2220 nM. For the same compound, the TGI (HS 578T breast) was 6430 nM, the GI50 (HT29 colon) was 242 nM and the TGI (HT29 colon) was 617 nM. It also gave a GI50 (IGROV1 ovarian) of 1480 nM, a TGI (IGROV1 ovarian) of 3160 nM and a GI50 (K-562 leukemia) of 226 nM. The TGI (K-562 leukemia) was over 100000 nM, the GI50 (KM12 colon) was 2040 nM and the TGI (KM12 colon) was 4320 nM. The GI50 (LOX IMVI melanoma) was 206 nM, the TGI (LOX IMVI melanoma) was 487 nM and the GI50 (M14 melanoma) was 252 nM. The TGI (M14 melanoma) was 716 nM, the GI50 (MALME-3M melanoma) was 188 nM and the TGI (MALME-3M melanoma) was 446 nM. The GI50 (MCF7 breast) was 241 nM, the TGI (MCF7 breast) was 921 nM and the GI50 (MDA-MB-231 breast) was 383 nM. For the same compound, the TGI (MDA-MB-231 breast) was 1420 nM, the GI50 (MDA-MB-435) was 670 nM and the TGI (MDA-MB-435) was 2130 nM. For the same compound, the GI50 (MOLT-4 leukemia) was 242 nM, the TGI (MOLT-4 leukemia) was 2310 nM and the GI50 (NCI-H226 lung) was 296 nM. For the same compound, the TGI (NCI-H226 lung) was 2740 nM, the GI50 (NCI-H23 lung) was 865 nM and the TGI (NCI-H23 lung) was 3100 nM. It also gave a GI50 (NCI-H460 lung) of 1890 nM, a TGI (NCI-H460 lung) of 3800 nM and a GI50 (NCI-H522 lung) of 160 nM. The TGI (NCI-H522 lung) was 341 nM, the GI50 (NCI/ADR-RES ovarian) was 976 nM and the TGI (NCI/ADR-RES ovarian) was 5610 nM. It also gave a GI50 (OVCAR-3 ovarian) of 199 nM, a TGI (OVCAR-3 ovarian) of 417 nM and a GI50 (OVCAR-4 ovarian) of 200 nM. For the same compound, the TGI (OVCAR-4 ovarian) was 509 nM, the GI50 (OVCAR-5 ovarian) was 1220 nM and the TGI (OVCAR-5 ovarian) was 2760 nM. It also gave a GI50 (OVCAR-8 ovarian) of 365 nM, a TGI (OVCAR-8 ovarian) of 3790 nM and a GI50 (PC-3 prostate) of 975 nM. The TGI (PC-3 prostate) was 2950 nM, the GI50 (RPMI-8226 leukemia) was 252 nM and the TGI (RPMI-8226 leukemia) was 696 nM. It also gave a GI50 (RXF 393 renal) of 186 nM, a TGI (RXF 393 renal) of 396 nM and a GI50 (SF-268 CNS) of 1280 nM. For the same compound, the TGI (SF-268 CNS) was 4050 nM, the GI50 (SF-295 CNS) was 2050 nM and the TGI (SF-295 CNS) was 4140 nM. For the same compound, the GI50 (SF-539 CNS) was 1740 nM, the TGI (SF-539 CNS) was 3660 nM and the GI50 (SK-MEL-2 melanoma) was 1290 nM. For the same compound, the TGI (SK-MEL-2 melanoma) was 3140 nM, the GI50 (SK-MEL-28 melanoma) was 279 nM and the TGI (SK-MEL-28 melanoma) was 847 nM. For the same compound, the GI50 (SK-MEL-5 melanoma) was 1270 nM, the TGI (SK-MEL-5 melanoma) was 2730 nM and the GI50 (SK-OV-3 ovarian) was 2260 nM. The TGI (SK-OV-3 ovarian) was 4540 nM, the GI50 (SN12C renal) was 1320 nM and the TGI (SN12C renal) was 3800 nM. The GI50 (SNB-19 CNS) was 1790 nM, the TGI (SNB-19 CNS) was 3330 nM and the GI50 (SNB-75 CNS) was 1630 nM. The TGI (SNB-75 CNS) was 4460 nM, the GI50 (SR leukemia) was 272 nM and the TGI (SR leukemia) was 1520 nM. It also gave a GI50 (SW-620 colon) of 190 nM, a TGI (SW-620 colon) of 391 nM and a GI50 (T-47D breast) of 184 nM. It also gave a TGI (T-47D breast) of 539 nM, a GI50 (TK-10 renal) of 201 nM and a TGI (TK-10 renal) of 462 nM. It also gave a GI50 (U251 CNS) of 1510 nM, a TGI (U251 CNS) of 6910 nM and a GI50 (UACC-257 melanoma) of 543 nM. The TGI (UACC-257 melanoma) was 1840 nM, the GI50 (UACC-62 melanoma) was 430 nM and the TGI (UACC-62 melanoma) was 1610 nM. It also gave a GI50 (UO-31 renal) of 170 nM and a TGI (UO-31 renal) of 445 nM.
